Test [1] is described as follows: Inhibition of murine Protein kinase A at 100 uM (No inhibition). On the set-up: species or system Mus musculus.
Test [2] has as its target T1, CaM kinase I alpha (Zea mays, UniProt O04417).
T1 sequence (O04417 whole entry): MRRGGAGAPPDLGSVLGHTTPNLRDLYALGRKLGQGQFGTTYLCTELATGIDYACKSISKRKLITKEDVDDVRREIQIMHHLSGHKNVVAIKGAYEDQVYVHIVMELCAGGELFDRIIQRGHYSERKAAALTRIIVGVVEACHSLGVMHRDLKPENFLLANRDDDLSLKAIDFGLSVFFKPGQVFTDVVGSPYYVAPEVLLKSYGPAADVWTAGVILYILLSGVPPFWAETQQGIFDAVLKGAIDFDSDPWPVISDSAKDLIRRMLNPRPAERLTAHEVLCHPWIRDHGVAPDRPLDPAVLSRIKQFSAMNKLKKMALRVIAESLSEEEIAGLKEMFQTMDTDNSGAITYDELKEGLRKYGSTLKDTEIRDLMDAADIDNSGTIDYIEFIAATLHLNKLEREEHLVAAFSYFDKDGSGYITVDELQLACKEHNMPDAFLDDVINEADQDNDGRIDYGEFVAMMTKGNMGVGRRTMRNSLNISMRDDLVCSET
Put plainly: Inhibition of Calcium-dependent protein kinase 1 (CDPK-1) from maize seedlings.

Test [3] can be described thus: Inhibition of Casein kinase 1 from rat liver.
A short description of test [4]: Inhibition of Casein kinase 2 from rat liver at 100 uM (No inhibition).
Test [5] in a line: Inhibition of murine Protein kinase A. On the set-up: species or system Mus musculus.
Test [6] is described as follows: Inhibition of Casein kinase 2 from rat liver.

SMILES strings stand for the structures. Residues, ends and D or L forms follow the SMILES beside them. *: point of attachment. X1 = Nc1ncnc2c1ncn2C1O[C@H](C(=O)*)[C@@H](O)[C@H]1O; Ahx = NCCCCCC(=O)O

Broadly, the IC50 is the concentration needed to halve the response being measured. As to `NC(N)=NCCC[C@@H](N)C(=O)N[C@H](CCCN=C(N)N)C(=O)N[C@H](CCCN=C(N)N)C(=O)N[C@H](CCCN=C(N)N)C(=O)N[C@H](CCCN=C(N)N)C(=O)N[C@H](CCCN=C(N)N)C(=O)O`, the IC50 entry is “Not Active” in test [1], above 50 µM in test [2], above 100 µM in test [3] and “Not Active” in test [4].

Turning to `N=C(N)NCCC[C@@H](NC(=O)[C@@H](CCCNC(=N)N)NC(=O)CCCCCNC(=O)[C@H]1OC(n2cnc3c(N)ncnc32)[C@H](O)[C@@H]1O)C(=O)O` (stereo partly specified), in test [2], the concentration for half-maximal inhibition (IC50) amounted to 35 µM.

As for `N=C(N)NCCC[C@H](NC(=O)[C@H](CCCNC(=N)N)NC(=O)[C@H](CCCNC(=N)N)NC(=O)[C@H](CCCNC(=N)N)NC(=O)[C@H](CCCNC(=N)N)NC(=O)[C@H](CCCNC(=N)N)NC(=O)CCCCCNC(=O)[C@H]1OC(n2cnc3c(N)ncnc32)[C@H](O)[C@@H]1O)C(=O)O` (stereo partly specified), the IC50 is 1.2 µM in test [2], above 30 µM in test [3], 0.12 µM in test [5] and above 30 µM in test [6] (read-out: IC50).

With `C[C@H](NC(=O)CCNC(=O)CCNC(=O)[C@H]1OC(n2cnc3c(N)ncnc32)[C@H](O)[C@@H]1O)C(=O)N[C@@H](CCCNC(=N)N)C(=O)N[C@@H](CCCNC(=N)N)C(=O)N[C@@H](CCCNC(=N)N)C(=O)N[C@@H](CCCNC(=N)N)C(=O)N[C@@H](CCCNC(=N)N)C(=O)N[C@@H](CCCNC(=N)N)C(=O)O` (stereo partly specified), the IC50 in test [2] is 16 µM; in test [3], above 100 µM; in test [5], 4.3 µM; in test [6] it was at least 30 µM.

As for `N=C(N)NCCC[C@H](NC(=O)[C@H](CCCNC(=N)N)NC(=O)[C@H](CCCNC(=N)N)NC(=O)[C@H](CCCNC(=N)N)NC(=O)[C@H](CCCNC(=N)N)NC(=O)[C@H](CCCNC(=N)N)NC(=O)CCCCCCCNC(=O)[C@H]1OC(n2cnc3c(N)ncnc32)[C@H](O)[C@@H]1O)C(=O)O` (stereo partly specified), the IC50 in test [2] is 3.2 µM; in test [3], above 30 µM; in test [5], 0.24 µM; in test [6] (read-out: IC50), above 30 µM.

On to `N=C(N)NCCC[C@H](NC(=O)[C@H](CCCNC(=N)N)NC(=O)[C@H](CCCNC(=N)N)NC(=O)[C@H](CCCNC(=N)N)NC(=O)[C@H](CCCNC(=N)N)NC(=O)[C@H](CCCNC(=N)N)NC(=O)CCCCCCCCCCNC(=O)[C@H]1OC(n2cnc3c(N)ncnc32)[C@H](O)[C@@H]1O)C(=O)O` (stereo partly specified), for which the concentration for half-maximal inhibition (IC50) in test [2] was 4.9 µM; in test [3], above 30 µM; in test [5] it was 0.33 µM; in test [4] it was “Not Active”.

Regarding `N=C(N)NCCC[C@H](NC(=O)[C@H](CCCNC(=N)N)NC(=O)[C@H](CCCNC(=N)N)NC(=O)[C@H](CCCNC(=N)N)NC(=O)[C@H](CCCNC(=N)N)NC(=O)[C@H](CCCNC(=N)N)NC(=O)CCNC(=O)[C@H]1OC(n2cnc3c(N)ncnc32)[C@H](O)[C@@H]1O)C(=O)O` (stereo partly specified), the IC50 in test [2] is 38 µM; in test [3], above 30 µM; in test [5], 1.8 µM; in test [6] it was “Not Active”.

For the compound `N=C(N)NCCC[C@H](NC(=O)[C@H](CCCNC(=N)N)NC(=O)[C@H](CCCNC(=N)N)NC(=O)[C@H](CCCNC(=N)N)NC(=O)[C@H](CCCNC(=N)N)NC(=O)[C@H](CCCNC(=N)N)NC(=O)CNC(=O)[C@H]1OC(n2cnc3c(N)ncnc32)[C@H](O)[C@@H]1O)C(=O)O` (stereo partly specified), the IC50 in test [2] is 67 µM; in test [3], above 30 µM; in test [5] it was 4 µM; in test [6] (read-out: IC50), above 30 µM.

On to `N=C(N)NCCC[C@H](NC(=O)[C@H](CCCNC(=N)N)NC(=O)[C@H](CCCNC(=N)N)NC(=O)[C@H](CCCNC(=N)N)NC(=O)[C@H](CCCNC(=N)N)NC(=O)[C@H](CCCNC(=N)N)NC(=O)CCCNC(=O)[C@H]1OC(n2cnc3c(N)ncnc32)[C@H](O)[C@@H]1O)C(=O)O` (stereo partly specified), for which the IC50 was 19 µM in test [2], above 30 µM in test [3], 1.3 µM in test [5] and above 30 µM in test [6] (read-out: IC50).

Turning to `C[C@H](NC(=O)C[C@H](NC(=O)C[C@H](NC(=O)[C@H]1O[C@@H](n2cnc3c(N)ncnc32)[C@H](O)[C@@H]1O)C(=O)O)C(=O)O)C(=O)N[C@@H](CCCNC(=N)N)C(=O)N[C@@H](CCCNC(=N)N)C(=O)N[C@@H](CCCNC(=N)N)C(=O)N[C@@H](CCCNC(=N)N)C(=O)N[C@@H](CCCNC(=N)N)C(=O)N[C@@H](CCCNC(=N)N)C(=O)O`, the IC50 was above 50 µM in test [2], above 30 µM in test [3], 11.1 µM in test [5] and above 30 µM in test [6] (read-out: IC50).

Regarding `CC(=O)NCCCCCC(=O)N[C@@H](CCCN=C(N)N)C(=O)N[C@@H](CCCNC(=N)N)C(=O)N[C@@H](CCCNC(=N)N)C(=O)N[C@@H](CCCNC(=N)N)C(=O)N[C@@H](CCCNC(=N)N)C(=O)N[C@@H](CCCN=C(N)N)C(=O)O` (stereo in doubt), the IC50 in test [2] is above 50 µM; in test [3], above 100 µM; in test [5], above 100 µM; in test [4], “Not Active”.

Consider `N=C(N)NCCC[C@H](NC(=O)[C@H](CCCNC(=N)N)NC(=O)[C@H](CCCNC(=N)N)NC(=O)[C@H](CCCNC(=N)N)NC(=O)CCCCCNC(=O)[C@H]1OC(n2cnc3c(N)ncnc32)[C@H](O)[C@@H]1O)C(=O)O` (stereo partly specified) ({X1-Ahx}-RRRR-OH), for which the IC50 in test [2] was 52 µM.

As for `Nc1ncnc2c1ncn2[C@@H]1O[C@H](CO)[C@@H](O)[C@H]1O` [ADENOSINE], the IC50 in test [2] was 116 µM; in test [3], 126 µM; in test [5] it was 141 µM; in test [6] (read-out: IC50) it was above 300 µM.

The values are drawn from ChEMBL document CHEMBL1131721, “Adenosine-5'-carboxylic acid peptidyl derivatives as inhibitors of protein kinases” (Bioorg Med Chem Lett, 1999).
